US8986696B2, “Trans-capsular administration of p38 map kinase inhibitors into orthopedic joints” (DePuy Mitek, Inc., priority 2007, dated 2015)
Where “and” joins values, the source holds several entries; their conditions need not be identical. Equal values may be shown once. Read-outs that look alike come from different tables or passages of the source.

Experiments:
[1] = system: IL-1β-stimulated NO production, bovine chondrocyte pellets / ARC tissues; experiment: chondrocyte pellet culture model: total nitrite/nitrate (NO); assay type: cell-based; conditions: for NO production: 10 ng/ml IL-1β
Description: Calf articular cartilage was obtained from the knee joints of eight to twelve month old animals and was processed within twenty-four hours after sacrifice. After removal of muscle and ligament, the cartilage was kept moist using phosphate buffer solution (PBS) to prevent tissue dehydration, and was aseptically peeled off from subchondral bone with a scalpel, and the cartilage pieces were further minced into smaller pieces (˜0.3-0.5×˜0.2-0.5 cm cubes). […] Chondrocytes were then enzymatically isolated from the tissue by incubation for overnight at 37° C. with gentle agitation in 0.2% collagenase in Dulbecco's modified eagle media (DMEM). After removal of tissue debris by filtration through cell strainer and the residual collagenase by 3× wash in PBS, cells were finally resuspended at a density of 2.5×10^6 cells/ml in chondrocyte medium. A 1 ml aliquot of the cell suspension was dispensed into either a 15 ml Falcon centrifuge tube or a 96 deep-well plate and centrifuged at 2000×g for five minutes. The chondrocyte pellets were incubated at 37° C. in a humidified atmosphere of 5% CO2 for two to three weeks with a medium change every other day.
As an alternative to using calf articular cartilage, a commercial Alginate Recovered Chondrocytes (ARC) system was also used (Articular Engineering, LLC (Northbrook, Ill.)). Use of the commercial system cut down on labor and time in producing chondrocyte pellet. This system produced cartilaginous tissue in vitro using bovine chondrocytes. The first step consisted of culturing chondrocytes in alginate under conditions optimal for the formation of a cell-associated matrix (CM). The second step allowed these cells with their CM, after recovery, to rapidly form and become integrated into a solid mass of cartilage on a porous insert within two weeks. This tissue is rich in cells surrounded by a cell-associated matrix that is degraded rapidly when the cells are exposed to IL-1. ARC tissues in 3 mm punches at delivery were first dispensed into a 96 deep-well plate, one punch per well, for compound treatment. The subsequent procedures were the same as those used for the chondrocyte pellets.
Chondrocyte pellets were washed once with 1 ml of Chondrocyte Stimulation Medium and equilibrated in the same medium at room temperature for fifteen to thirty minutes. Compounds were dissolved in H2O, Ethanol or dimethyl sulfoxide (DMSO) (10^−2 M) according to suppliers' instructions and further diluted with Chondrocyte Stimulation Medium to the required concentrations. DMSO concentrations in the culture media should not exceed 1%; this concentration of DMSO has no effect on cartilage proteoglycan metabolism in response to cytokines.
The pellets were first treated with compounds at desired concentrations at 37° C. for one hour and then incubated for three to five days in the absence or presence of 10 ng/ml of IL-1β. At the end of the incubation, media and pellets were harvested and frozen for further analysis. Pellets were also fixed as needed in 4% (w/v) paraformaldehyde in PBS for histology analysis.
Nitrate/Nitrite levels were measured using the Griess reaction (Green L. C. et al., “Analysis of Nitrate, Nitrite, and [15N]nitrate in Biological Fluids,” Anal. Biochem. 126: 131-138 (1982)) with aNitrate/Nitrite Colorimetric Assay Kit (Cayman Chemicals), the contents of which are incorporated herein by reference. The assay involved a simple two-step process. The first step involved conversion of nitrate in 50 μl of culture medium to nitrite utilizing nitrate reductase in a reaction volume of 100 μl at room temperature for two hours. The second step involved the addition of 50 μl of both Griess Reagent 1 and 2, which converted nitrite into a deep purple azo compound in ten minutes. Photometric measurement of the absorbance at 540 or 550 nm due to this azo chromophore accurately determined nitrite concentration. […]

solubility = assay type: physicochemical
chondrocytes = assay type: cell-based
How it was run: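 Bovine chondrocyte pellets (calf articular cartilage, or alginate-recovered chondrocyte tissue punches) pretreated with compounds 1 h at 37 °C, then incubated 3-5 days with or without 10 ng/ml IL-1β, DMSO ≤1%. Media LDH activity measured colorimetrically via lactate-to-pyruvate conversion reducing INT tetrazolium to formazan.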

[2] = system: rabbit anterior cruciate ligament transection (ACLT) model of osteoarthritis; experiment: ACLT model, preventative dosing regimen (Example IX); assay type: in vivo; design: key to Trochlear Groove Erosion of Cartilage, mean score / Tibial Plateau # of Osteophytes (Medial), mean score: gross grading scale; higher score = more joint damage; key to All Condylar Effects (0-18), mean: score 0-18; higher = more joint damage
Experimental: 130 Female New Zealand white rabbits underwent ACLT on the right knee. Intra-articular injections were administered to the operated knee once per week for five weeks beginning either one or six weeks after the ACLT. All animals were euthanized one week after the administration of the fifth injection. Gross observations were made on the knee joints according to a predetermined grading scale. The stifle joints were removed. Samples were preserved in 10% neutral buffered formalin. The stifle joints were photographed using high-resolution photography.
The ACLT was performed according to the ACLT model discussed above. Animals were group housed in pens on the floor and left untreated for one week to allow healing of the surgical site. Then, once weekly for five weeks, intra-articular injections were administered. One week following the last injection, the animals were sacrificed. The total in-life portion of the preventative dosing regimen was […]. Previous studies have confirmed that the six week time-point allows sufficient degeneration changes to occur.
The study design consisted of an n=10 per group. A total of 160 μl was injected at each administration.
At the time of sacrifice the following parameters were evaluated grossly (the scale follows in parenthesis):
Each parameter was given a score. The combination of all parameters gave a Total Score (0-52). Additionally, combinations of the three subsets of data yielded scores for All Trochlear Groove Effects (0-10), All Condylar Effects (0-18) and All Tibial Plateau Effects (0-24). […] […] The grades that compose this parameter are trochlear groove thickness and erosion, all the grades in All Condylar Effects, and all grades listed under Tibial Plateau. A higher score indicates more damage to the joint. A lower score indicates less damage or more cartilage preservation in the joint. Individual results for each parameter assessed were tabulated.

[3] = within the tested concentrations

Row | Compound | All Cartilage Effects (0-40), mean [2] | All Condylar Effects (0-18), mean [2] | All Tibial Plateau Effects (0-24), mean [2] | All Trochlear Groove Effects (0-10), mean [2] | Femoral Condyle % Surface Area Erosion (Lateral), mean score [2] | Femoral Condyle % Surface Area Erosion (Medial), mean score [2] | Femoral Condyle Depth of Erosion (Lateral), mean score [2] | Femoral Condyle Depth of Erosion (Medial), mean score [2] | Femoral Condyle Presence of Clefts, mean score [2] | Tibial Plateau # of Osteophytes (Lateral), mean score [2] | Tibial Plateau # of Osteophytes (Medial), mean score [2] | Tibial Plateau % Surface Area Erosion (Lateral), mean score [2] | Tibial Plateau % Surface Area Erosion (Medial), mean score [2] | Tibial Plateau Depth of Erosion (Lateral), mean score [2] | Tibial Plateau Depth of Erosion (Medial), mean score [2] | Tibial Plateau Presence of Clefts (Lateral), mean score [2] | Tibial Plateau Presence of Clefts (Medial), mean score [2] | Total Score (0-52), mean [2] | Trochlear Groove # of Osteophytes, mean score [2] | Trochlear Groove Erosion of Cartilage, mean score [2] | also measured
1 | CC(=O)Oc1cccc2c1C(=O)c1c(OC(C)=O)cc(C(=O)O)cc1C2=O [Diacerein, reference compound] |  |  |  |  |  |  |  |  |  |  |  |  |  |  |  |  |  |  |  |  | NO production ([1]; diacerein at 5.4 μM, rhein at 0.35 μM): significantly inhibited
2 | OCCC#Cc1nc(-c2ccc(F)cc2)c(-c2ccncc2)n1CCCc1ccccc1 [JNJ 3026582 (RWJ 67657), 4-[4-(4-fluorophenyl)-1-(3-phenylpropyl)-5-(4-pyridinyl)-1H-imidazol-2-yl]-3-butyn-1-ol] | 4.3+1.8 and 4.3 | 1.6 ± 1.3 and 1.6 | 3.7 | 6.6 | 0.4 ± 0.3 and 0.4 | 0.5 ± 0.4 and 0.5 | 0.4 ± 0.3 and 0.4 | 0.3+0.3 and 0.3 | 0 | 0.6 | 1.7 | 0.7 | 0 | 0.7 | 0 | 0 | 0 | 11.9 ± 2.2 and 11.9 | 2.8 | 1.3 | water solubility (solubility): poor water solubility; pH at which soluble (solubility; soluble at pH<2): < 2; cytotoxicity to chondrocytes (LDH, words) (chondrocytes; [3]): little cytoxicity; Trochlear Groove Osteophyte Size, mean score [2]: 2.5; Trochlear Groove Thickening, mean score [2]: 0
3 | C[C@H](Nc1nccc(-c2c(-c3ccc(F)cc3)nc3nc(N)ccn23)n1)c1ccccc1 [JNJ 7583979 (RWJ 351958)] |  |  |  |  |  |  |  |  |  |  |  |  |  |  |  |  |  |  |  |  | NO production ([1]; ARC): significantly inhibited; water solubility (solubility): poor water solubility; cytotoxicity to chondrocytes (LDH, words) (chondrocytes; [3]): little cytoxicity
4 | CC(=O)N1CCN(c2c(-c3ccncc3)c(-c3ccc(F)cc3)c(C#N)n2C)CC1 [JNJ 17089540 (RWJ 669307)] | 5.8+2.0 and 5.8 | 2.7 ± 1.3 and 2.7 | 4.1 | 6.2 | 1.2 | 0.3+0.3 and 0.3 | 0.2+0.2 and 0.2 | 0.2+0.2 and 0.2 | 0 | 0.4 | 1.4 | 1.3 | 0 | 0.8 | 0 | 0 | 0 | 12.9 ± 2.3 and 12.9 | 2.6 | 1.0 | IC50 ([1]; Pellet Assay, read-out: NO Inhibition IC50): 4.9 µM; IC50 ([1]; bovine ARC, 7.5 ng/ml IL-1β, five days, read-out: NO IC50): 4.92 µM; water solubility (solubility; HCl salt): > 100 mg/mL; cytotoxicity to chondrocytes (LDH, words) (chondrocytes): little cytoxicity; Trochlear Groove Osteophyte Size, mean score [2]: 2.7; Trochlear Groove Thickening, mean score [2]: 0
5 | CC(C(=O)O)c1ccc(C(=O)c2cccs2)cc1 (centres unmarked) [Suprofen, reference compound] | 6.8 | 4.1 | 3.1 | 7.1 | 2.1 | 0.1+0.1 and 0.1 | 1.6 | 0.3+0.3 and 0.3 | 0 | 0.5 | 1.1 | 0.9 | 0 | 0.5 | 0 | 0 | 0 | 14.1 | 2.8 | 1.5 | Trochlear Groove Osteophyte Size, mean score [2]: 2.8; Trochlear Groove Thickening, mean score [2]: 0
